Measurements reported in the supplement of paper PMC13380429.

Legend:
Conditions in all cases: 72 h
Caco-2 [1] = test: cell viability relative to DMSO; higher = less toxic
Calu-3 [2] = test: as above
HepG2 [3] = test: as above
U2OS [4] = test: as above
Vero E6 [5] = test: as above
Caco-2 [6] = test: relative viability EC50 (midpoint between 100% and the lowest measured viability); higher = less toxic
Calu-3 [7] = test: as above
HepG2 [8] = test: as above
U2OS [9] = test: as above
Vero E6 [10] = test: as above
Caco-2 [11] = test: drug sensitivity score (DSS) for viability; higher = more toxic; extreme values may be limits of the assay
Calu-3 [12] = test: as above
HepG2 [13] = test: as above
U2OS [14] = test: as above
Vero E6 [15] = test: as above

Structure (SMILES) | cell viability (Caco-2 [1]; 1 nM) [%] | cell viability (Caco-2 [1]; 10 nM) [%] | cell viability (Caco-2 [1]; 100 nM) [%] | cell viability (Caco-2 [1]; 1000 nM) [%] | cell viability (Caco-2 [1]; 10000 nM) [%] | cell viability (Calu-3 [2]; 1 nM) [%] | cell viability (Calu-3 [2]; 10 nM) [%] | cell viability (Calu-3 [2]; 100 nM) [%] | cell viability (Calu-3 [2]; 1000 nM) [%] | cell viability (Calu-3 [2]; 10000 nM) [%] | cell viability (HepG2 [3]; 1 nM) [%] | cell viability (HepG2 [3]; 10 nM) [%] | cell viability (HepG2 [3]; 100 nM) [%] | cell viability (HepG2 [3]; 1000 nM) [%] | cell viability (HepG2 [3]; 10000 nM) [%] | cell viability (U2OS [4]; 1 nM) [%] | cell viability (U2OS [4]; 10 nM) [%] | cell viability (U2OS [4]; 100 nM) [%] | cell viability (U2OS [4]; 1000 nM) [%] | cell viability (U2OS [4]; 10000 nM) [%] | cell viability (Vero E6 [5]; 1 nM) [%] | cell viability (Vero E6 [5]; 10 nM) [%] | cell viability (Vero E6 [5]; 100 nM) [%] | cell viability (Vero E6 [5]; 1000 nM) [%] | cell viability (Vero E6 [5]; 10000 nM) [%] | relative viability EC50 (Caco-2 [6]) [µM] | relative viability EC50 (Calu-3 [7]) [µM] | relative viability EC50 (HepG2 [8]) [µM] | relative viability EC50 (U2OS [9]) [µM] | relative viability EC50 (Vero E6 [10]) [µM] | drug sensitivity score (Caco-2 [11]) | drug sensitivity score (Calu-3 [12]) | drug sensitivity score (HepG2 [13]) | drug sensitivity score (U2OS [14]) | drug sensitivity score (Vero E6 [15])
NNc1nncc2ccccc12 [hydralazine] | 104 | 105 | 91.4 | 108 | 88.3 | 95 | 102 | 89 | 85.3 | 85 | 98.4 | 106 | 128 | 98.5 | 114 | 98.4 | 102 | 99.4 | 101 | 95.8 | 98.7 | 101 | 105 | 105 | 99.3 | > 10 | > 10 | > 10 | > 10 | > 10 | 0 | 2.2 | 0 | 0 | 0
CCCCC(=O)O[C@]1(C(=O)CO)CC[C@H]2[C@@H]3CCC4=CC(=O)CC[C@]4(C)[C@H]3[C@@H](O)C[C@@]21C [hydrocortisone-valerate] | 103 | 99 | 88 | 109 | 99.3 | 87.3 | 97.1 | 86.5 | 95.9 | 103 | 103 | 97 | 101 | 96.5 | 103 | 95.5 | 97.1 | 92.5 | 100 | 93.2 | 107 | 105 | 101 | 98.5 | 101 | > 10 | > 10 | > 10 | > 10 | > 10 | 0 | 0 | 0 | 0 | 0
CC(C)C(=O)c1c(C(C)C)nn2ccccc12 [ibudilast] | 91.2 | 89.9 | 93.3 | 102 | 107 | 95.7 | 94.1 | 93 | 104 | 107 | 94.5 | 101 | 109 | 88.8 | 99.2 | 94.6 | 102 | 97.4 | 104 | 104 | 96.8 | 97.4 | 98.9 | 94.7 | 103 | > 10 | > 10 | > 10 | > 10 | > 10 | 0 | 0 | 0 | 0 | 0
COCC(=O)Nc1c(I)c(C(=O)NCC(O)CO)c(I)c(C(=O)N(C)CC(O)CO)c1I (stereo not given) [iopromide] | 93.6 | 101 | 93.7 | 98.4 | 102 | 110 | 104 | 93.1 | 94.9 | 96.1 | 98 | 89.1 | 89.1 | 85.2 | 95.6 | 99 | 101 | 99.1 | 100 | 95.1 | 100 | 104 | 93.9 | 94.9 | 104 | > 10 | > 10 | > 10 | > 10 | > 10 | 0 | 0 | 0 | 0 | 0
CCOC(=O)C1=C(C)NC(C)=C(C(=O)OCC)C1c1ccccc1/C=C/C(=O)OC(C)(C)C [lacidipine] | 97.4 | 91 | 90.2 | 84.7 | 79 | 97 | 89.8 | 106 | 93 | 91 | 96.2 | 102 | 96.8 | 114 | 91.9 | 96.6 | 95.2 | 98.5 | 92.1 | 97.5 | 92 | 99.4 | 89.7 | 99.6 | 106 | > 10 | > 10 | > 10 | > 10 | > 10 | 2.5 | 0 | 0 | 0 | 0
N#C/C(=C1/SCC(c2ccccc2Cl)S1)n1ccnc1 (stereo not given) [lanoconazole] | 96.6 | 106 | 99.7 | 101 | 102 | 96.9 | 103 | 103 | 108 | 86.6 | 93.3 | 95.5 | 99.9 | 97.6 | 81.6 | 99.1 | 99.9 | 97.4 | 96.8 | 89.8 | 100 | 99.1 | 95.2 | 92.5 | 94.9 | > 10 | > 10 | > 10 | > 10 | > 10 | 0 | 0 | 0.8 | 0 | 0
CCC(=O)O[C@@](Cc1ccccc1)(c1ccccc1)[C@@H](C)CN(C)C [levopropoxyphene] | 99.3 | 103 | 98.3 | 100 | 102 | 104 | 90.1 | 94.7 | 102 | 104 | 94.3 | 97.1 | 96.4 | 94.7 | 89.4 | 104 | 101 | 101 | 98.8 | 100 | 100 | 100 | 96 | 101 | 95.4 | > 10 | > 10 | > 10 | > 10 | > 10 | 0 | 0 | 0 | 0 | 0
CCOC(=O)Nc1nc2ccccc2[nH]1 [lobendazole] | 97.9 | 91.6 | 96.4 | 109 | 95.5 | 100 | 106 | 102 | 98.4 | 95.9 | 94.6 | 113 | 104 | 111 | 98.9 | 97.1 | 96.1 | 98.2 | 94.8 | 99.7 | 96.9 | 101 | 87.6 | 103 | 103 | > 10 | > 10 | > 10 | > 10 | > 10 | 0 | 0 | 0 | 0 | 0
CC(C(=O)O)c1ccc(CC2CCCC2=O)cc1 (stereo not given) [loxoprofen] | 98.6 | 90 | 97.1 | 88.1 | 96 | 101 | 110 | 104 | 108 | 93.6 | 92.1 | 104 | 97 | 108 | 94.3 | 108 | 92.7 | 98.3 | 94.8 | 96.9 | 106 | 97.4 | 98.4 | 92.8 | 94.2 | > 10 | > 10 | > 10 | > 10 | > 10 | 0 | 0 | 0 | 0 | 0
O=C1CCC[C@@H]2[C@H]3C[C@@H](CN12)[C@@H]1CCCCN1C3 [lupanine] | 103 | 92.8 | 90.4 | 87.2 | 91.4 | 87.2 | 96.8 | 99.5 | 95.5 | 94.4 | 99.4 | 95.7 | 93 | 110 | 93.7 | 101 | 96.2 | 98.6 | 94 | 100 | 92.1 | 97.9 | 93.8 | 98.1 | 95.7 | > 10 | > 10 | > 10 | > 10 | > 10 | 1.8 | 0 | 0 | 0 | 0
N=C(N)NC(=N)Nc1cccc(Cl)c1 [m-chlorophenylbiguanide] | 101 | 92.2 | 100 | 101 | 97.1 | 108 | 94.7 | 106 | 98 | 116 | 112 | 106 | 102 | 105 | 99.2 | 94.3 | 98.9 | 103 | 95.9 | 101 | 100 | 101 | 95.9 | 101 | 96.9 | > 10 | > 10 | > 10 | > 10 | > 10 | 0 | 0 | 0 | 0 | 0
O=C(O)C[C@H](O)C(=O)O [malic-acid] | 93 | 91.8 | 99 | 91 | 99.8 | 102 | 108 | 92.3 | 95.2 | 95.2 | 101 | 95 | 94.6 | 95.2 | 95 | 105 | 101 | 103 | 97.6 | 101 | 98.1 | 107 | 96.5 | 100 | 95.5 | > 10 | > 10 | > 10 | > 10 | > 10 | 0 | 0 | 0 | 0 | 0
CC(=O)O[C@]1(C(C)=O)CC[C@H]2[C@@H]3C[C@H](C)C4=CC(=O)CC[C@]4(C)[C@H]3CC[C@@]21C [medroxyprogesterone-acetate] | 92.6 | 103 | 94.5 | 101 | 95.8 | 99.8 | 106 | 95.6 | 101 | 103 | 110 | 103 | 99.1 | 95.1 | 97.3 | 97.1 | 99 | 97 | 96.2 | 96.5 | 96.6 | 97.9 | 100 | 98.3 | 98.2 | > 10 | > 10 | > 10 | > 10 | > 10 | 0 | 0 | 0 | 0 | 0
C[C@H]1C[C@@H]2[C@H]([C@@H](O)C[C@@]3(C)[C@H]2CC[C@]3(O)C(=O)CO)[C@@]2(C)C=CC(=O)C=C12 [methylprednisolone] | 96 | 108 | 90.3 | 99.3 | 98.4 | 105 | 102 | 99.3 | 99.6 | 106 | 109 | 107 | 103 | 98.5 | 104 | 102 | 97.9 | 91.4 | 98.9 | 95.2 | 104 | 103 | 96.6 | 106 | 101 | > 10 | > 10 | > 10 | > 10 | > 10 | 0 | 0 | 0 | 0 | 0
